Assays:
[1] = test system: B16F10 mouse melanoma cells; assay: B16F10 IFNγ-induced cellular growth inhibition assay; type: cell-based; settings: B16-F10, with 0.5 ng/mL IFNγ, read-out: B16F10 GI IC50
Method in brief: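 B16F10 cells grown in DMEM+10% FBS, with or without 0.5 ng/mL final mouse IFNγ, and dosed in triplicate at 100 μM to 0.001 μM final (0.1% DMSO). Confluence imaged every 6 h for 5 days; percent growth inhibition versus DMSO/with-IFNγ control taken once DMSO/no-IFNγ wells exceeded 95% confluence, giving IC50.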

[2] = test system: Pan T cells isolated from C57BL6 splenocytes; assay: T cell function assays (IFNγ and TNFα in supernatants); type: cell-based, mouse; settings: 0.3 μM compound, 3 days; for IFNγ [pg/mL] anti-CD3/CD28 / TNFα [pg/mL] anti-CD3/CD28: anti-CD3/CD28 stimulation
Description: Example 231: T Cell Function Assays Pan T cells were isolated from C57BL6 splenocytes using a MACS Pan T cell isolation kit II (Miltenyi Biotec, Auburn, Calif.) according to the manufacturer's instructions. Isolated T cells (200,000 cells/well in a 96 well flat-bottom plate) were cultured in RPMI 1640 supplemented with 10% FBS, […] 2-mercaptoethanol, 100 U/mL penicillin, and 100 μg/mL streptomycin, and incubated with 0.3 μM compound or DMSO in duplicates. After 1 hour, mouse T cell activator CD3/CD28 Dynabeads (ThermoFisher Scientific, Waltham, Mass.) were added at a 1:5 beads to cells ratio to stimulate the T cells for 3 days. T cells with or without compound were incubated in the absence of T cell activator beads to evaluate if compounds nonspecifically stimulate the T cells. After 3 days of stimulation, supernatants were collected and IFNγ and TNFα in supernatants were assessed using an MSD V-plex assay (Meso Scale Discovery, Rockville, Md.).

[3] = molecular target: T1, His tagged full-length PTPN1 protein (Homo sapiens, UniProt P18031); assay: Mobility shift assay (MSA) used to determine potency of PTPN1 inhibitors; type: biochemical; settings: enzyme 0.5 nM, substrate 2 μM
T1 construct: made in house
T1 sequence (P18031 with tags, fused parts or gaps): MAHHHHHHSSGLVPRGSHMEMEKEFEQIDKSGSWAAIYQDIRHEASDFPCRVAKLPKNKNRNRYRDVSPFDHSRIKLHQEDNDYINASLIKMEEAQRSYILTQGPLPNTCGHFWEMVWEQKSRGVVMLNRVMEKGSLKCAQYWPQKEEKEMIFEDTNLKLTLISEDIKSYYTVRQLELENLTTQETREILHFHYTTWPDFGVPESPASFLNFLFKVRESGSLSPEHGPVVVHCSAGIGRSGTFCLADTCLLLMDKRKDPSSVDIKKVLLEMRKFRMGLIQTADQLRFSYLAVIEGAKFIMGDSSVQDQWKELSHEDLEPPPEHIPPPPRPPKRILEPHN
Method in brief: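 Full-length His-tagged human PTPN1 (0.5 nM) was preincubated 10 min at room temperature with compound (12-point, 1:3 dilution) in HEPES pH 7.5 buffer with EGTA, EDTA, Tween 20 and DTT. A 2 μM fluorescent phospho-insulin receptor peptide was then added for 10 min before quench. Mobility-shift % conversion gave % inhibition and IC50.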

[4] = molecular target: T2, His tagged PTPN2 (TC45) protein (Homo sapiens, UniProt P17706); assay: Mobility shift assay used to determine potency of PTPN2 inhibitors; type: biochemical; settings: enzyme 0.5 nM, substrate 2 μM; read-out: PTPN2 MSA IC50
T2 construct: made in house
T2 sequence (P17706 with tags, fused parts or gaps isoform P17706-2): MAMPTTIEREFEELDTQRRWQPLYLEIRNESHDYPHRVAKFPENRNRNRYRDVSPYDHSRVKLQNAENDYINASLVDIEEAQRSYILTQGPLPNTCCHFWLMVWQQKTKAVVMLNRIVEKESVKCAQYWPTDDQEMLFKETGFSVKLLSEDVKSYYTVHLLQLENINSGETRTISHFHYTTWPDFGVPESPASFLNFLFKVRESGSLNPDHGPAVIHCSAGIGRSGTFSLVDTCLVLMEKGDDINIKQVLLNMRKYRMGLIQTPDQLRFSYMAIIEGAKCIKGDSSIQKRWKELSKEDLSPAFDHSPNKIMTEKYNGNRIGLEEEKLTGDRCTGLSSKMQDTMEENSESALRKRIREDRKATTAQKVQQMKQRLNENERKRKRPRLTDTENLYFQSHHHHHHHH
Method in brief: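 Enzyme (0.5 nM) preincubated with compound (12-point, 1:3 dilution) 10 min at room temperature in 50 mM HEPES pH 7.5, 1 mM EGTA, 10 mM EDTA, 0.01% Tween 20, 2 mM DTT; OG488-labelled phospho-insulin-receptor peptide substrate (2 μM) added for 10 min, then quenched. Microfluidic mobility shift (ex 488/em 530 nm) gave % conversion; IC50 from % inhibition.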

Row | IC50 [1] [nM] | IC50 [3] [nM] | Compound | IFNγ [pg/mL] anti-CD3/CD28 [2] [pg/mL] | TNFα [pg/mL] anti-CD3/CD28 [2] [pg/mL] | IFNγ [pg/mL] no stimulation [2] [pg/mL] | TNFα [pg/mL] no stimulation [2] [pg/mL] | IC50 [4] [nM]
1 | < 1000 | < 1 | O=C1CN(c2c(O)cc3c(c2F)C[C@H](NCCC2(C(F)(F)F)CC2)CC3)S(=O)(=O)N1 (single isomer, unassigned) [Compound 148] | 168.4 | 123.4 | 1.0 | 0.8 | < 1
2 | < 1000 | 1 to 10 | CC(C)CCNC[C@@H]1Cc2cc(O)c(N3CC(=O)NS3(=O)=O)c(F)c2C1 (single isomer, unassigned) [Compound 291] | 83.3 | 91.2 | 0.7 | 1.1 | 1 to 10
3 | < 1000 | 1 to 10 | C[C@@H](O)CCN[C@@H]1CCc2cc(O)c(N3CC(=O)NS3(=O)=O)c(F)c2C1 (single isomer, unassigned) [Compound 307] | 66.7 | 89.5 | 1.2 | 1.1 | 1 to 10
4 | – | – | CCC(CC)CCN[C@@H]1CCc2cc(O)c(N3CC(=O)NS3(=O)=O)c(F)c2C1 [Compound 204, 5-{(7R)-7-[(3-ethylpentyl)amino]-1-fluoro-3-hydroxy-5,6,7,8-tetrahydronaphthalen-2-yl}-1λ^6,2,5-thiadiazolidine-1,1,3-trione] | 148.8 | 105.4 | 1.8 | 1.1 | –
5 | < 1000 | 1 to 10 | O=C1CN(c2c(O)cc3c(c2F)CC(NCCC(F)F)CC3)S(=O)(=O)N1 (centres unmarked) [Compound 223, 5-{7-[(3,3-difluoropropyl)amino]-1-fluoro-3-hydroxy-5,6,7,8-tetrahydronaphthalen-2-yl}-1λ^6,2,5-thiadiazolidine-1,1,3-trione] | – | – | – | – | 10 to 100
6 | 1000 to 10000 | 10 to 100 | O=C1CN(c2c(O)cc3c(c2F)CN(CCC2CC4CCC2O4)CC3)S(=O)(=O)N1 (centres unmarked) [Compound 225, 5-{8-fluoro-6-hydroxy-2-[2-(7-oxabicyclo[2.2.1]heptan-2-yl)ethyl]-1,2,3,4-tetrahydroisoquinolin-7-yl}-1λ^6,2,5-thiadiazolidine-1,1,3-trione] | – | – | – | – | 1 to 10
7 | 1000 to 10000 | 1 to 10 | O=C1CN(c2c(O)cc3c(c2F)CC(NCC[C@H]2C[C@@H](OC(F)(F)F)C2)CC3)S(=O)(=O)N1 (some centres unmarked) [Compound 234, 5-[1-fluoro-3-hydroxy-7-({2-[(1s,3r)-3-(trifluoromethoxy)cyclobutyl]ethyl}amino)-5,6,7,8-tetrahydronaphthalen-2-yl]-1λ^6,2,5-thiadiazolidine-1,1,3-trione] | – | – | – | – | 10 to 100
8 | 1000 to 10000 | 10 to 100 | O=C1CN(c2c(O)cc3c(c2F)CC(N[C@H]2C[C@@H](OC(F)(F)F)C2)CC3)S(=O)(=O)N1 (some centres unmarked) [Compound 235, 5-(1-fluoro-3-hydroxy-7-{[(1s,3s)-3-(trifluoromethoxy)cyclobutyl]amino}-5,6,7,8-tetrahydronaphthalen-2-yl)-1λ^6,2,5-thiadiazolidine-1,1,3-trione] | – | – | – | – | 10 to 100
9 | 10000 to 100000 | 10 to 100 | CCCC1(NNC(=O)c2ccccc2)CCc2cc(O)c(N3CC(=O)NS3(=O)=O)c(F)c2C1 (centres unmarked) [Compound 241, N′-[8-fluoro-6-hydroxy-2-propyl-7-(1,1,4-trioxo-1λ^6,2,5-thiadiazolidin-2-yl)-1,2,3,4-tetrahydronaphthalen-2-yl]benzohydrazide] | – | – | – | – | 10 to 100
10 | 1000 to 10000 | 10 to 100 | CC(C)CCCC1(N)CCc2cc(O)c(N3CC(=O)NS3(=O)=O)c(F)c2C1 (centres unmarked) [Compound 254, 5-[7-amino-1-fluoro-3-hydroxy-7-(4-methylpentyl)-5,6,7,8-tetrahydronaphthalen-2-yl]-1λ^6,2,5-thiadiazolidine-1,1,3-trione] | 97.0 | 91.2 | 0.7 | 1.1 | 10 to 100
11 | 1000 to 10000 | 10 to 100 | CC(C)CCNCC1Cc2cc(O)c(N3CC(=O)NS3(=O)=O)c(F)c2C1 (centres unmarked) [Compound 268, 5-(4-fluoro-6-hydroxy-2-{[(3-methylbutyl)amino]methyl}-2,3-dihydro-1H-inden-5-yl)-1λ^6,2,5-thiadiazolidine-1,1,3-trione] | – | – | – | – | 10 to 100
12 | 10000 to 100000 | 1 to 10 | CC(C)CCN(CCC(C)C)CC1Cc2cc(O)c(N3CC(=O)NS3(=O)=O)c(F)c2C1 (centres unmarked) [Compound 269, 5-(2-{[bis(3-methylbutyl)amino]methyl}-4-fluoro-6-hydroxy-2,3-dihydro-1H-inden-5-yl)-1λ^6,2,5-thiadiazolidine-1,1,3-trione] | – | – | – | – | 1 to 10
13 | 1000 to 10000 | 1 to 10 | CC1(C)CC1CCCN1CCc2cc(O)c(N3CC(=O)NS3(=O)=O)c(F)c2C1 (centres unmarked) [Compound 288, 5-{2-[3-(2,2-dimethylcyclopropyl)propyl]-8-fluoro-6-hydroxy-1,2,3,4-tetrahydroisoquinolin-7-yl}-1λ^6,2,5-thiadiazolidine-1,1,3-trione] | – | – | – | – | 10 to 100

Row | Compound | IC50 [1] [nM] | IC50 [3] [nM] | IFNγ [pg/mL] anti-CD3/CD28 [2] [pg/mL] | TNFα [pg/mL] anti-CD3/CD28 [2] [pg/mL] | IFNγ [pg/mL] no stimulation [2] [pg/mL] | TNFα [pg/mL] no stimulation [2] [pg/mL] | IC50 [4] [nM]
14 | CCCC1(N)CCc2cc(O)c(N3CC(=O)NS3(=O)=O)c(F)c2C1 (centres unmarked) [Compound 255, 5-(7-amino-1-fluoro-3-hydroxy-7-propyl-5,6,7,8-tetrahydronaphthalen-2-yl)-1λ^6,2,5-thiadiazolidine-1,1,3-trione] | 1000 to 10000 | 10 to 100 | – | – | – | – | > 100

— patent US10851073B2, “Protein tyrosine phosphatase inhibitors and methods of use thereof” (Calico Life Sciences LLC, priority 2019, dated 2020)
